Drawing on patent publication EP0070331A2, “Cephalosporin derivatives, their preparation, compositions containing them, and their use in the treatment of diseases” (F. HOFFMANN-LA ROCHE & CO. Aktiengesellschaft, priority 1981, dated 1983), this text covers ED50, concentration and LD50 for two compounds.

Molecules are shown by their SMILES. Bounds are passed on as bounds.

In data set [1] the test system is Escherichia coli. As to the kind of experiment: Curative dose (CD50) in infected mice, Escherichia coli. In kind it is in vivo. The settings on record: Maus, dose at which 50% of mice survive.
The test system of data set [2] is Neisseria meningitidis. The data set is described as follows: Curative dose (CD50) in infected mice, Neisseria meningitidis. Conditions: po, Maus, dose at which 50% of mice survive. In kind it is in vivo. An excerpt:
(§1) Die orale antimikrobielle Wirksamkeit der erfindungsgemässen Produkte kann anhand von in vivo-Versuchen an der Maus nachgewiesen werden.

Data set [3] concerns Serratia marcescens. As to the kind of experiment: Curative dose (CD50) in infected mice, Serratia marcescens. Conditions: Maus, dose at which 50% of mice survive. In kind it is in vivo.
Text: as §1

In data set [4] the test system is Streptococcus pyogenes. As to the kind of experiment: Curative dose (CD50) in infected mice, Streptococcus pyogenes. In kind it is in vivo. The settings on record: Maus, dose at which 50% of mice survive.
Data set [5] can be described thus: Blood levels after oral administration in the rat. In kind it is in vivo. Conditions: Ratte, orale Dosis 20 mg/kg, read-out: Antibiotikumkonzentration im Blut.
Text: ..Die nach oraler Gabe erzielten Blutspiegelwerte ergeben sich gemäss folgendem Vergleich an der Ratte.
Data set [6] in a line: in vivo. The settings on record: mouse, po.

For the compound `CC1=C(C(=O)O)N2C(=O)[C@@H](NC(=O)[C@H](N)c3ccccc3)[C@H]2SC1` [Cephalexin], the ED50 in data set [1] (po) was 3.2 mg/kg; in data set [1] (sc), 2.1 mg/kg; in data set [2], 1.2 mg/kg; in data set [3] (po), greater than 50 mg/kg; in data set [3] (sc), greater than 50 mg/kg; in data set [4] (po) it was 1.8 mg/kg. Besides, it took a dose of 1.2 mg/kg to reach the 50% effect level in data set [4] (sc) (ED50).

Turning to `CO/N=C(\C(=O)N[C@@H]1C(=O)N2C(C(=O)OCOC(=O)C(C)(C)C)=C(CSc3nc(C(=O)OCOC(=O)C(C)(C)C)nn3C)CS[C@H]12)c1csc(N)n1` [Produkt A, Methylen (6R,7R)-7-[2-(2-Amino-4-thiazolyl)-2-[ (Z)-methoxyimino]-acetamido]-3-[[[2-methyl-5-[[(pivaloyloxy)methoxy]carbonyl]-2H-1,2,4-triazol-3-yl]thio]methyl]-8-oxo-5-thia-1-azabicyclo[4.2.0]oct-2-en-2-carboxylat-pivalat], the concentration at 0.25 h in data set [5] (after 15 min) was 6000 ng/mL. Further, the concentration at 0.5 h in data set [5] (after 30 min) is 12000 ng/mL. The concentration at 0.75 h in data set [5] (after 45 min) is 12000 ng/mL. The concentration at 1 h in data set [5] (after 60 min) amounted to 10000 ng/mL. In addition, in data set [5] (after 90 min), the concentration at 1.5 h is 8000 ng/mL. Moreover, the concentration at 2.5 h in data set [5] (after 150 min) came to 5000 ng/mL. In addition, in data set [6], the LD50 at 24 h is greater than 4000 mg/kg. Further, the 50% effective dose (ED50) was determined as 0.14 mg/kg in data set [2], 0.68 mg/kg in data set [3] (po), 0.05 mg/kg in data set [3] (sc) and 0.95 mg/kg in data set [4] (po).
